{"source": "patent US20260021131A1", "about": "“USE OF MI[…] IN COMBINATION WITH CA[…] TREATING NASOPHARYNGEAL CARCINOMA” (CSPC ZHONGQI PHARMACEUTICAL TECHNOLOGY (SHIJIAZHUANG) CO., …, priority 2022, published 2026)", "key": {"[1]": {"tested_on": "subjects with recurrent and/or metastatic nasopharyngeal carcinoma who have failed platinum-based therapy", "test": "Phase III clinical study of mitoxantrone hydrochloride liposome injection combined with capecitabine versus capecitabine monotherapy: efficacy evaluation (best overall response, RECIST 1.1)", "type": "in vivo, human", "set-up": "key to Best overall response: complete response (CR); partial response (PR); stable disease (SD); disease progression (PD)", "description": "(§1) Example 1. A Randomized, Open-Label, Positive-Controlled, Multi-center Phase III Clinical Study of Mitoxantrone Hydrochloride Liposome Injection Combined with Capecitabine Versus Capecitabine Monotherapy in Subjects with Recurrent and/or Metastatic Nasopharyngeal Carcinoma Who Have Failed Platinum-Based Therapy.\nThis study is a randomized, open-label, positive-controlled, multicenter phase III clinical study whose objective is to evaluate the efficacy and safety of mitoxantrone hydrochloride liposome injection combined with capecitabine versus capecitabine monotherapy in subjects with recurrent and/or metastatic nasopharyngeal carcinoma.\n(§2) Subjects with recurrent and/or metastatic nasopharyngeal carcinoma who have failed first-line or second-line platinum-based therapy will be enrolled. After screening, eligible subjects are stratified-randomized (stratification factors: (1) ECOG score: 0 vs. 1; (2) whether a liver metastasis is present: any metastasis is present vs. all metastases are not present; (3) gender: male vs. female) in a 1:1 ratio into an experimental group and a control group.\n(§3) The experimental group receives treatment with mitoxantrone hydrochloride liposome injection (20 mg/m^2) combined with capecitabine (1000 mg/m^2, twice daily), with every 3 weeks as a treatment cycle. The mitoxantrone hydrochloride liposome is administered on day 1 of each cycle, and capecitabine is administered on days 1 to 14. After 8 cycles of treatment with the mitoxantrone hydrochloride liposome, the investigator will assess the patient's risk-benefit ratio to determine whether to continue treatment until disease progression or intolerance, and capecitabine monotherapy as maintenance treatment. The control group receives capecitabine monotherapy, with every 3 weeks as a treatment cycle. Capecitabine monotherapy is administered on days 1 to 14 of each cycle. Sparse blood collection is conducted for all subjects in the experimental group.\nDuring the study, the Independent Data Monitoring Committee (IDMC) will conduct safety assessments after two cycles of treatment for the first 40 subjects enrolled (about 20 per group) and throughout the study. Enrollment will continue during the safety assessment period. All subjects will be treated until disease progression according to the RECIST1.1 criteria, intolerable toxicity, withdrawal of informed consent, initiation of new anti-tumor therapy, loss to follow-up, death, or end of study, whichever occurs first. If the subject has no more treatment options after the investigator first determines that the subject has experienced disease progression, and the investigator determines that the subject can continue to benefit from the trial treatment, the subject may continue to receive the trial treatment in this trial until disease progression as assessed by the IRC or the investigator determines that the subject no longer benefits. […]"}, "[2]": {"tested_on": "subjects with recurrent and/or metastatic nasopharyngeal carcinoma who have failed platinum-based therapy", "type": "in vivo, human", "description": "as §1, §2, §3\nDuring the study, the Independent Data Monitoring Committee (IDMC) will conduct safety assessments after two cycles of treatment for the first 40 subjects enrolled (about 20 per group) and throughout the study. Enrollment will continue during the safety assessment period. All subjects will be treated until disease progression according to the RECIST1.1 criteria, intolerable toxicity, withdrawal of informed consent, initiation of new anti-tumor therapy, loss to follow-up, death, or end of study, whichever occurs first. If the subject has no more treatment options after the investigator first determines that the subject has experienced disease progression, and the investigator determines that the subject can continue to benefit from the trial treatment, the subject may continue to receive the trial treatment in this trial until disease progression as assessed by the IRC or the investigator determines that the subject no longer benefits.\n• Objective response rate (ORR), disease control rate (DCR), and duration of response (DOR) as assessed by the investigator and the IRC • Progression-free survival (PFS) as assessed by the investigator • Frequency and severity of AEs (NCI CTCAE 5.0); changes in vital signs, physical examinations, electrocardiograms, and laboratory findings • Total mitoxantrone and free mitoxantrone plasma concentrations. • Note: The abbreviations described above have the following meanings: • PFS: progression-free survival, defined as the time between the initial treatment of study drug and the date of disease progression (PD) or death, whichever occurs first. • OS: overall survival, defined as the time from the initial treatment of the study drug to death from any cause. • ORR: objective response rate, defined as the proportion of subjects achieving complete response (CR) and partial response (PR). • DCR: disease control rate, defined as the proportion of subjects achieving complete response (CR), partial response (PR), and stable disease (SD). • DOR: duration of response, defined as the time from the first assessment of CR or PR to the first assessment of PD or death from any cause."}, "[3]": {"conditions": "subjects evaluated for BOR (9 experimental group, 5 control group), by Jul. 31, 2023"}}, "data": [{"smiles": "CCCCCOC(=O)Nc1nc(=O)n([C@@H]2O[C@H](C)[C@@H](O)[C@H]2O)cc1F", "note": "[control group, capecitabine]", "values": [{"measurement": "Best overall response", "setting": "[1]; subject S01005, ECOG 0, 1 line received, metastasis liver and lung", "value": "SD"}, {"measurement": "Best overall response", "setting": "[1]; subject S13001, ECOG 1, 1 line received, metastasis liver, spleen, and bone", "value": "PD"}, {"measurement": "Best overall response", "setting": "[1]; subject S14001, ECOG 1, 2 lines received, metastasis liver and bone", "value": "PD"}, {"measurement": "Best overall response", "setting": "[1]; subject S24001, ECOG 1, 2 lines received, metastasis bone", "value": "PR"}, {"measurement": "Best overall response", "setting": "[1]; subject S32001, ECOG 1, 1 line received, metastasis liver", "value": "PD"}, {"measurement": "Best overall response (BOR): number of evaluated subjects with PD", "setting": "[1]; [3]", "value": "three"}, {"measurement": "Best overall response (BOR): number of evaluated subjects with PR", "setting": "[1]; [3]", "value": "one"}, {"measurement": "Best overall response (BOR): number of evaluated subjects with SD", "setting": "[1]; [3]", "value": "one"}, {"measurement": "Best overall response (BOR): percentage of evaluated subjects with PD", "setting": "[1]; [3]", "value": 60, "unit": "%"}, {"measurement": "Best overall response (BOR): percentage of evaluated subjects with PR", "setting": "[1]; [3]", "value": 20, "unit": "%"}, {"measurement": "Best overall response (BOR): percentage of evaluated subjects with SD", "setting": "[1]; [3]", "value": 20, "unit": "%"}, {"measurement": "SAE: Acute epiglottitis", "setting": "[2]; both, human, in vivo", "value": "0 n (%)"}, {"measurement": "SAE: Anemia", "setting": "[2]; both, human, in vivo", "value": "0 n (%)"}, {"measurement": "SAE: Bacterial pneumonia", "setting": "[2]; both, human, in vivo", "value": "1 (3.3%) n (%)"}, {"measurement": "SAE: Cancer pain", "setting": "[2]; both, human, in vivo", "value": "0 n (%)"}, {"measurement": "SAE: Dysphagia", "setting": "[2]; both, human, in vivo", "value": "1 (3.3%) n (%)"}, {"measurement": "SAE: General fatigue", "setting": "[2]; both, human, in vivo", "value": "0 n (%)"}, {"measurement": "SAE: Hypokalemia", "setting": "[2]; both, human, in vivo", "value": "0 n (%)"}, {"measurement": "SAE: Hyponatremia", "setting": "[2]; both, human, in vivo", "value": "0 n (%)"}, {"measurement": "SAE: Neutrophil count decreased", "setting": "[2]; both, human, in vivo", "value": "0 n (%)"}, {"measurement": "SAE: Oralmucositis", "setting": "[2]; both, human, in vivo", "value": "1 (3.3%) n (%)"}, {"measurement": "SAE: Platelet count decreased", "setting": "[2]; both, human, in vivo", "value": "0 n (%)"}, {"measurement": "SAE: Post-cardiac arrest resuscitation syndrome", "setting": "[2]; both, human, in vivo", "value": "1 (3.3%) n (%)"}, {"measurement": "SAE: Posterior-circulation ischemia", "setting": "[2]; both, human, in vivo", "value": "1 (3.3%) n (%)"}, {"measurement": "SAE: Pulmonary infection", "setting": "[2]; both, human, in vivo", "value": "0 n (%)"}, {"measurement": "SAE: Severe pneumonia", "setting": "[2]; both, human, in vivo", "value": "1 (3.3%) n (%)"}, {"measurement": "SAE: Sinusitis", "setting": "[2]; both, human, in vivo", "value": "0 n (%)"}, {"measurement": "SAE: Upper airway obstruction", "setting": "[2]; both, human, in vivo", "value": "0 n (%)"}, {"measurement": "SAE: White blood cell count decreased", "setting": "[2]; both, human, in vivo", "value": "0 n (%)"}, {"measurement": "Subjects who experienced serious adverse events (SAEs), total", "setting": "[2]; both, human, in vivo", "value": 3, "unit": "subjects"}, {"measurement": "SAE: Death from unknown cause", "setting": "[2]; experimental group N = 32, control group N = 30", "value": "1 (3.3%) n (%)"}, {"measurement": "Subjects who died (end of the study)", "setting": "[2]; up to Jul. 31, 2023, 32 subjects experimental group, 30 subjects control group", "value": "two"}]}]}
